# Active and inactive are the calls of the source. No cut-off for these calls is given here.
# Legend:
# GL261-Luc [1] = test: Antitumor activity against mouse GL261-Luc cells implanted in C57BL/6 mouse assessed as prolongation of animal survival time at 5 to 10 mg/kg, iv administered every other day on day 0,2,4,6,8,10 and measured after 12 days; assay type: functional, organism-based; settings: dose 5-10 mg/kg, time 12.0 day
# GL261-Luc [2] = test: Antitumor activity against mouse GL261-Luc cells implanted in iv dosed C57BL/6 mouse assessed as inhibition of tumor growth administered every other day on day 0,2,4,6,8,10 and measured on day 12 by bioluminescence imaging analysis; assay type: functional, organism-based; settings: dose 5-10 mg/kg, time 12.0 day
# U-87 MG [3] = test: Induction of cell cycle arrest in human U87 cells assessed as accumulation of cells at […] at 0.5 uM measured after 48 hrs by PI staining based flow cytometry analysis (reference value: 8.55%); assay type: functional, U-87MG ATCC
# [4] = Toxicity in C57BL/6 mouse implanted with mouse GL261-Luc cells assessed as histopathological changes in liver at 5 to 10 mg/kg, iv administered every other day on day 0,2,4,6,8,10 and measured after 12 days by H and E staining based analysis; assay type: organism-based; settings: in vivo, 288 h, dose 5-10 mg/kg, time 12 day
# Tubulin (Homo sapiens) [5] = target: T1, Tubulin (Homo sapiens) (UniProt P68371+Q9H4B7+P0DPH7+P68366+Q13509+Q71U36+P04350+Q3ZCM7+P07437+P68363+Q9BQE3+Q6PEY2+Q13885+Q9BVA1+Q9BUF5); test: Inhibition of tubulin (unknown origin) polymerization assessed as reduction in polymerization rate by fluorescence based analysis; assay type: protein-complex assay; settings: dose 6-12 µM
# U-87 MG [6] = test: Induction of cell cycle arrest in human U87 cells assessed as accumulation of cells at G1 phase at 4 uM measured after 48 hrs by PI staining based flow cytometry analysis (reference value: 72.6%); assay type: functional, U-87MG ATCC
# U-87 MG [7] = test: Induction of apoptosis in human U87 cells assessed as live cells at 0.3125 uM incubated for 48 hrs by Annexin V-FITC/PI staining based flow cytometry analysis (reference value: 91.7%); assay type: functional, U-87MG ATCC
# U-87MG ATCC [8] = test: Downregulation of TUBA1B gene expression in human U87 cells by transcriptome analysis; assay type: functional, cell-based
# U-87MG ATCC [9] = test: Upregulation of NECTIN4 gene expression in human U87 cells by transcriptome analysis; assay type: functional, cell-based
# A549 = test: Antiproliferative activity against human A549 cells assessed as inhibition of cell growth inhibition incubated for 48 hrs by CCK-8 assay; assay type: functional, cell-based; settings: A549, 48 h
# Tubulin (Homo sapiens) [10] = target: T1, Tubulin (Homo sapiens); test: Induction of microtubule depolymerization in human U87 cells assessed as degradation of intracellular tubulin skeleton by measuring reduction in fluorescence intensity at 0.5 to 1 uM incubated for 48 hrs by Alexa Flour 555/DAPI staining based confocal microscopic analysis; assay type: cell-based; settings: dose 0.5-1 µM
# [11] = Toxicity in C57BL/6 mouse implanted with mouse GL261-Luc cells assessed as histopathological changes in lung at 5 to 10 mg/kg, iv administered every other day on day 0,2,4,6,8,10 and measured after 12 days by H and E staining based analysis; assay type: organism-based; settings: in vivo, 288 h, dose 5-10 mg/kg, time 12 day
# U-87 MG [12] = test: Induction of apoptosis in human U87 cells assessed as live cells at 2.5 uM incubated for 48 hrs by Annexin V-FITC/PI staining based flow cytometry analysis (reference value: 91.7%); assay type: functional, U-87MG ATCC
# U-87 MG [13] = test: Induction of apoptosis in human U87 cells assessed as early apoptotic cells at 0.3125 uM incubated for 48 hrs by Annexin V-FITC/PI staining based flow cytometry analysis (reference value: 6.25%); assay type: functional, U-87MG ATCC
# U-87 MG [14] = test: Induction of apoptosis in human U87 cells assessed as dead cells at 1.25 uM incubated for 48 hrs by Annexin V-FITC/PI staining based flow cytometry analysis (reference value: 0.013%); assay type: functional, U-87MG ATCC
# U-87MG ATCC [15] = test: Upregulation of CORO1A gene expression in human U87 cells by transcriptome analysis; assay type: functional, cell-based
# U-87 MG [16] = test: Induction of cell cycle arrest in human U87 cells assessed as accumulation of cells at G1 phase at 1 uM measured after 48 hrs by PI staining based flow cytometry analysis (reference value: 72.6%); assay type: functional, U-87MG ATCC
# U-87 MG [17] = test: Induction of apoptosis in human U87 cells assessed as late apoptotic cells at 0.625 uM incubated for 48 hrs by Annexin V-FITC/PI staining based flow cytometry analysis (reference value: 2.08%); assay type: functional, U-87MG ATCC
# U-87 MG [18] = test: Induction of cell cycle arrest in human U87 cells assessed as accumulation of cells at […] at 1 uM measured after 48 hrs by PI staining based flow cytometry analysis (reference value: 8.55%); assay type: functional, U-87MG ATCC
# U-87 MG [19] = test: Induction of apoptosis in human U87 cells assessed as dead cells at 0.625 uM incubated for 48 hrs by Annexin V-FITC/PI staining based flow cytometry analysis (reference value: 0.013%); assay type: functional, U-87MG ATCC
smiles,measurement,setting,value
Cc1ccc2ccc3c(c2n1)OC(N)=C(C#N)C3c1ccccc1 (stereo not given),Activity,GL261-Luc [1],Active
same,Activity,GL261-Luc [2],Dose-Dependent Effect
same,Activity,U-87 MG [3],10.6%
same,Activity,[4],Non-Toxic
same,inhibition,Tubulin (Homo sapiens) [5],Dose-Dependent Effect
same,Activity,U-87 MG [6],13%
same,Activity,U-87 MG [7],88.1%
same,Activity,U-87MG ATCC [8],Active
same,Activity,U-87MG ATCC [9],Active
same,IC50,A549,880 nM
same,Activity,Tubulin (Homo sapiens) [10],Active
same,Activity,[11],Non-Toxic
same,Activity,U-87 MG [12],62.5%
same,Activity,U-87 MG [13],7.01%
same,Activity,U-87 MG [14],0.027%
same,Activity,U-87MG ATCC [15],Active
same,Activity,U-87 MG [16],33%
same,Activity,U-87 MG [17],7.88%
same,Activity,U-87 MG [18],24.6%
same,Activity,U-87 MG [19],0.1%

# From ChEMBL document CHEMBL5543095 (Eur J Med Chem, 2024)
